Values of other authors as cited in patent publication US20170020838A1, “TREATMENT FOR RESPIRATORY DISEASE” (MUCOKINETICA LIMITED, priority 2014, published 2017).

System: airway ENaC
Details: Bridges et al. 2001; cited from earlier work

aprotinin
effect on airway ENaC activity: Down regulation
